The record followed here is patent publication US9505781B2, “Compositions comprising thienopyrimidine and thienopyridine compounds and methods of use thereof” (The Regents of the University of Michigan, priority 2013, dated 2016).

What is called pIC50 is the IC50 on a negative log10 scale, so that one unit is a factor of ten.

Structures are written as SMILES. pIC50: −log10 of the molar value. Bounds are passed on as bounds.

For this assay, the target named is T1, menin-MLL interaction (Homo sapiens, UniProt O00255).
T1 sequence (O00255 1-610): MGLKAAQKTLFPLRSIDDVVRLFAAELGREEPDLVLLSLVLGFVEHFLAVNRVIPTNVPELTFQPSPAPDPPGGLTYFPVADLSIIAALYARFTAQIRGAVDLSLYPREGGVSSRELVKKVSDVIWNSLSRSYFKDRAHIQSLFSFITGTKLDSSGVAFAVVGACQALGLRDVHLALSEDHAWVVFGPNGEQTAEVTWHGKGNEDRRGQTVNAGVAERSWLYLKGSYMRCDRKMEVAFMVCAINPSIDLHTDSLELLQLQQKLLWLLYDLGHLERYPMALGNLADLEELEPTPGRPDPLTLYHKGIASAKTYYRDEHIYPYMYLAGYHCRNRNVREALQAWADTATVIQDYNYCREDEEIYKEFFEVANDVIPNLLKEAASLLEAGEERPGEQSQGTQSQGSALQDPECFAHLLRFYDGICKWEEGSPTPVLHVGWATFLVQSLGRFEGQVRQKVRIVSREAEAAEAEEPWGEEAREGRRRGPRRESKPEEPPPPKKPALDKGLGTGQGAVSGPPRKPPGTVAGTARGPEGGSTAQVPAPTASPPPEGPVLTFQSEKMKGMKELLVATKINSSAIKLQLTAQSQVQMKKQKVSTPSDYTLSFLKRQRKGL
Briefly: biochemical.
Description: Compounds that inhibit the interaction decrease the fluorescence anisotropy which is being used as a read-out for compound screening and for IC50 determination.
Take `CCOc1c(CN2CCC(Nc3ncnc4sc(CC(F)(F)F)cc34)CC2)ccc2c1cc(C#N)n2CC(N)=O` [Compound 409]: the negative logarithm of the IC50 (pIC50) is 6.30 to 7.00.

Take `Cc1cc(CN2CCC(Nc3ncnc4sc(CC(F)(F)F)cc34)CC2)cc2cc(C#N)[nH]c12` [Compound 410]: the negative-log IC50 (pIC50) is 6.30 to 7.00.

Take `COCCOCCn1nc(Cn2c(C#N)cc3cc(CN4CCC(Nc5ncnc6sc(CC(F)(F)F)cc56)CC4)ccc32)cc1C` [Compound 411]: the negative-log IC50 (pIC50) was 6.30 to 7.00.

With `N#Cc1cc2cc(CN3CCC(Nc4ncnc5sc(CC(F)(F)F)cc45)CC3)ccc2n1Cc1cc(OCCC2CC2)n[nH]1` [Compound 412], the negative logarithm of the IC50 (pIC50) is 6.30 to 7.00.

`N#Cc1cc2cc(CN3CCC(Nc4ncnc5sc(CC(F)(F)F)cc45)CC3)ccc2n1CC(O)(CO)COCCC1CCCCC1` (centres unmarked) [Compound 413]: the pIC50 was 6.30 to 7.00.

Consider `N#Cc1cc2cc(CN3CCC(Nc4ncnc5sc(CC(F)(F)F)cc45)CC3)ccc2n1Cc1cc(OCCCC2CC2)n[nH]1` [Compound 414], for which the pIC50 was 6.30 to 7.00.

The compound `N#Cc1cc2cc(CN3CCC(Nc4ncnc5sc(CC(F)(F)F)cc45)CC3)ccc2n1Cc1cc(OCCCCC2CC2)n[nH]1` [Compound 415] had a negative logarithm of the IC50 (pIC50) of 6.30 to 7.00.

Consider `N#Cc1cc2cc(CN3CCC(Nc4ncnc5sc(CC(F)(F)F)cc45)CC3)ccc2n1Cc1cc(OCCCC2CCCC2)n[nH]1` [Compound 416], for which the negative logarithm of the IC50 (pIC50) is 6.30 to 7.00.

`Cc1c(C#N)[nH]c2ccc(CN3CCC(Nc4ncnc5sc(CC(F)(F)F)cc45)CC3)cc12` [Compound 417] showed a pIC50 of 6.30 to 7.00.

`N#Cc1cc2cc(CN3CCC(Nc4c(COCCC5CCCC5)cnc5sc(CC(F)(F)F)cc45)CC3)ccc2[nH]1` [Compound 418] showed a pIC50 of 5.70 to 6.30.

Consider `N#Cc1cc2cc(CN3CCC(Nc4c(COCCCC5CCCC5)cnc5sc(CC(F)(F)F)cc45)CC3)ccc2[nH]1` [Compound 419], for which the pIC50 is 5.70 to 6.30.

Take `N#Cc1cc2cc(CN3CCC(Nc4c(COCc5cc[nH]n5)cnc5sc(CC(F)(F)F)cc45)CC3)ccc2[nH]1` [Compound 420]: the negative-log IC50 (pIC50) was 5.70 to 6.30.

Turning to `N#Cc1cc2cc(CN3CCC(Nc4c(COCC5CCCC5)cnc5sc(CC(F)(F)F)cc45)CC3)ccc2[nH]1` [Compound 421], the negative-log IC50 (pIC50) is 5.70 to 6.30.

For the compound `Cc1c(CN2CCC(Nc3ncnc4sc(CCF)cc34)CC2)ccc2[nH]c(C#N)cc12` [Compound 423], the pIC50 is > 7.00.

For the compound `N#Cc1cc2nc(CN3CCC(Nc4ncnc5sc(CC(F)(F)F)cc45)CC3)ccc2[nH]1` [Compound 424], the pIC50 was > 7.00.

On to `Cc1c(CN2CCC(Nc3ncnc4sc(CC(F)(F)F)cc34)CC2)ccc2c1cc(C#N)n2CC(O)(CO)CCCC1CC1` (centres unmarked) [Compound 425], for which the pIC50 was > 7.00.

Consider `Cc1c(CN2CCC(Nc3ncnc4sc(CC(F)(F)F)cc34)CC2)ccc2c1cc(C#N)n2CC1CN(C)C(=O)CO1` (centres unmarked) [Compound 426], for which the pIC50 is > 7.00.

For the compound `Cc1c(CN2CCC(Nc3ncnc4sc(CC(F)(F)F)cc34)CC2)ccc2c1cc(C#N)n2CC1CCC(=O)N1` (centres unmarked) [Compound 427], the pIC50 was > 7.00.

As for `Cc1c(CN2CCC(Nc3ncnc4sc(CC(F)(F)F)cc34)CC2)ccc2c1cc(C#N)n2CC1CCC(=O)NC1` (centres unmarked) [Compound 428], the negative logarithm of the IC50 (pIC50) is > 7.00.

With `Cc1c(CN2CCC(Nc3ncnc4sc(CC(F)(F)F)cc34)CC2)ccc2c1cc(C#N)n2CC1CNC(=O)C1` (centres unmarked) [Compound 430], the pIC50 was > 7.00.
